Assay results published in patent US20230391764A1, “BENZOTHIAZOLYL BICYCLO[1.1.1]PENTANE DERIVATIVES FOR THE TREATMENT AND PROPHYLAXIS OF HEPATITIS B VIRUS INFECTION” (Hoffmann-La Roche Inc., priority 2021, published 2023).

Assays:
Format in all cases: cell-based
HBsAg = experiment: PHH HBV natural infection assay, HBsAg (alphalisa); settings: Hepatitis B virus, 72 h, read-out: HBsAg IC50
Experimental: (§1) Detailed procedures regarding primary human hepatocyte (PHH) HBV natural infection assay are described as below. One tube of frozen PHH (10 million cells) is thawed in 37° C. water bath and then transferred to 20 mL of PHH thawing medium (Sigma, InVitroGRO HT Medium, Cat. S03319) with gently mixing. The cells were then centrifuged at […] for 5 min, the supernatant was discarded and the tube was refilled with 25 mL of PHH plating medium (Sigma, InVitroGRO CP Medium, Cat. S03317). The tube was shaken very gently to re-suspend all cells, and then 50 μl of cells were transferred to each well 384-well collagen I coated plate with appropriate liquid handling equipment, e.g. Integra VIAFLO384 or Agilent Bravo. The cells were then cultured for 24 hours in a cell incubator. For HBV infection, after PHH attachment on the culture plate, the plating medium was removed and replenished with PHH culture medium containing HBV virus. The PHH culture medium was prepared with Dulbecco's Modified Eagle Medium (DMEM)/F12 (1:1 in volume ratio) containing 10% fetal bovine serum (Gibco, Cat.10099141), 5 ng/mL human epidermal growth factor (Gibco, Cat.PHG0311L), 20 ng/mL dexamethasone (Sigma, Cat.D4902-100 mg), 250 ng/mL human recombinant insulin (Gibco, Cat.41400045) and 100 U/mL penicillin. HBV virus at 200 genome equivalent (GE) per cell with 4% PEG8000 (Sigma, Cat.P1458) containing culture medium were added to the PHH culture medium for infection. The cells were then cultured for 24 hours in cell incubator. Then the cell culture supernatant was removed. The HBV-infected PHH were cultured with sandwich culture method with PHH culture medium containing 1% DMSO and 0.25 mg/mL matrix gel for 72 hours. The supernatant was then refreshed with PHH culture medium containing different concentrations of testing compounds for two times with 72-hour interval. At the end of treatment, the supernatant was collected for viral markers measurements, including HBsAg, HBeAg, HBV DNA and cytotoxicity. HBsAg and HBeAg were detected using alphalisa method using their specific antibodies. For HBV DNA detection, HBV DNA Quantitative Fluorescence Diagnostic Kit (Sansure Biotech Inc.) was used following the manufacture's protocol. Cytotoxicity was determined using Cell Counting Kit-8 (CCK8, Dojindo Molecular Technologies, Inc.).
(§2) The compounds of the present invention were tested for their capacity to inhibit HBsAg and HBeAg as described herein.

HBeAg = experiment: PHH HBV natural infection assay, HBeAg (alphalisa); settings: Hepatitis B virus, 72 h, read-out: HBeAg IC50
Experimental: as §1, §2

[1] = PHH natural infection assay, cytotoxicity (Cell Counting Kit-8); settings: human; HBV-infected PHH, CCK8
Experimental: as §1

Row | Structure (SMILES) | IC50 (HBsAg) [nM] | IC50 (HBeAg) [nM] | CC50 at 144 h [1] [µM]
1 | C[C@H](c1ccc(C(=O)NC23CC(c4nc5ccc(Cl)cc5s4)(C2)C3)o1)S(C)(=O)=O (single isomer, unassigned) [Example 56a] | 230 | 230 | 15
2 | C[C@@H](c1ccc(C(=O)NC23CC(c4nc5ccc(Cl)cc5s4)(C2)C3)o1)S(C)(=O)=O (single isomer, unassigned) [Example 56b] | 190 | 160 | 14.7
3 | CS(=O)(=O)C1(c2ccc(C(=O)NC34CC(c5nc6ccc(Br)cc6s5)(C3)C4)o2)CC1 [Example 2, N-[1-(6-bromo-1,3-benzothiazol-2-yl)-3-bicyclo[1.1.1]pentanyl]-5-(1-methylsulfonylcyclopropyl)furan-2-carboxamide] | 170 | 110 | 5.85
4 | CS(=O)(=O)C1(c2nsc(C(=O)NC34CC(c5nc6ccc(Br)cc6s5)(C3)C4)n2)CC1 [Example 4] | 70 | 50 | 4.22
5 | CS(=O)(=O)C1(c2ccc(C(=O)NC34CC(c5nc6cc(Br)ccc6s5)(C3)C4)o2)CC1 [Example 6, N-(3-(5-bromobenzo[d]thiazol-2-yl)bicyclo[1.1.1]pentan-1-yl)-5-(1-(methylsulfonyl)cyclopropyl)furan-2-carboxamide] | 170 | 100 | 6.03
6 | CS(=O)(=O)C1(c2nsc(C(=O)NC34CC(c5nc6cc(Br)ccc6s5)(C3)C4)n2)CC1 [Example 7] | 100 | 60 | 8.52
7 | CS(=O)(=O)C1(c2ccc(C(=O)NC34CC(c5nc6ccc(C#N)cc6s5)(C3)C4)o2)CC1 [Example 8] | 790 | 720 | 12.5
8 | C#Cc1ccc2nc(C34CC(NC(=O)c5ccc(C6(S(C)(=O)=O)CC6)o5)(C3)C4)sc2c1 [Example 10] | 370 | 270 | 11
9 | CS(=O)(=O)C1(c2ccc(C(=O)NC34CC(c5nc6ccc(F)cc6s5)(C3)C4)o2)CC1 [Example 11] | 480 | 360 | 16.3
10 | CS(=O)(=O)Cc1ccc(C(=O)NC23CC(c4nc5ccc(Cl)cc5s4)(C2)C3)o1 [Example 13] | 1020 | 800 | > 50
11 | CCC(c1ccc(C(=O)NC23CC(c4nc5ccc(Cl)cc5s4)(C2)C3)o1)S(C)(=O)=O (stereo not drawn) [Example 14] | 200 | 150 | > 10
12 | CS(=O)(=O)C1(c2ccc(C(=O)NC34CC(c5nc6ccc(Cl)cc6s5)(C3)C4)o2)CC1 [Example 15] | 210 | 160 | 6.33
13 | CC(C)(c1ccc(C(=O)NC23CC(c4nc5ccc(Cl)cc5s4)(C2)C3)o1)S(C)(=O)=O [Example 16] | 290 | 240 | 3.76
14 | CC(c1ccc(C(=O)NC23CC(c4nc5ccc(Cl)cc5s4)(C2)C3)o1)S(C)(=O)=O (stereo not drawn) [Example 17, N-[3-(6-chloro-1,3-benzothiazol-2-yl)-1-bicyclo[1.1.1]pentanyl]-5-(1-methylsulfonylethyl)furan-2-carboxamide] | 170 | 150 | 14.6
15 | CC(C)(c1ncc(C(=O)NC23CC(c4nc5ccc(Cl)cc5s4)(C2)C3)o1)S(C)(=O)=O [Example 22] | 720 | 470 | 7.55
16 | CC(C)(c1cc(C(=O)NC23CC(c4nc5ccc(Cl)cc5s4)(C2)C3)sn1)S(C)(=O)=O [Example 27] | 840 | 650 | 8.55

Row | Structure (SMILES) | IC50 (HBsAg) [nM] | IC50 (HBeAg) [nM] | CC50 at 144 h [1] [µM]
17 | CC(c1nsc(C(=O)NC23CC(c4nc5ccc(Cl)cc5s4)(C2)C3)n1)S(C)(=O)=O (stereo not drawn) [Example 31] | 740 | 630 | 5.71
18 | CC(C)(c1nsc(C(=O)NC23CC(c4nc5ccc(Cl)cc5s4)(C2)C3)n1)S(C)(=O)=O [Example 32] | 430 | 330 | 2.95
19 | CC(n1ccc(C(=O)NC23CC(c4nc5ccc(Cl)cc5s4)(C2)C3)n1)S(C)(=O)=O (stereo not drawn) [Example 34] | 440 | 390 | 7.01
20 | CS(=O)(=O)C(Br)c1ccc(C(=O)NC23CC(c4nc5cc(Cl)ccc5s4)(C2)C3)o1 (stereo not drawn) [Example 43] | 500 | 480 | 22.8
21 | CCC(c1ccc(C(=O)NC23CC(c4nc5cc(Cl)ccc5s4)(C2)C3)o1)S(C)(=O)=O (stereo not drawn) [Example 44] | 230 | 160 | 20.4
22 | CC(C)(c1ccc(C(=O)NC23CC(c4nc5cc(Cl)ccc5s4)(C2)C3)o1)S(C)(=O)=O [Example 45] | 390 | 250 | 9.94
23 | CC(c1ccc(C(=O)NC23CC(c4nc5cc(Cl)ccc5s4)(C2)C3)o1)S(C)(=O)=O (stereo not drawn) [Example 46] | 370 | 230 | 15.3
24 | CS(=O)(=O)C1(c2ccc(C(=O)NC34CC(c5nc6cc(Cl)ccc6s5)(C3)C4)o2)CC1 [Example 47] | 320 | 220 | 6.62
25 | C[S+]([O-])C(C)(C)c1ccc(C(=O)NC23CC(c4nc5cc(Cl)ccc5s4)(C2)C3)o1 (stereo not drawn) [Example 50] | 100 | 80 | 1.64
26 | CC(c1ccn(C(=O)NC23CC(c4nc5ccc(Cl)cc5s4)(C2)C3)n1)S(C)(=O)=O (stereo not drawn) [Example 58, N-[3-(6-chloro-1,3-benzothiazol-2-yl)-1-bicyclo[1.1.1]pentanyl]-3-(1-methylsulfonylethyl)pyrazole-1-carboxamide] | 340 | 240 | 6.06
27 | CC(C)(c1ccn(C(=O)NC23CC(c4nc5ccc(Cl)cc5s4)(C2)C3)n1)S(C)(=O)=O [Example 60] | 122 | 90 | 4.82
28 | CC(C)(c1ccn(C(=O)NC23CC(c4nc5cc(Br)ccc5s4)(C2)C3)n1)S(C)(=O)=O [Example 61] | 110 | 80 | 2.09
29 | CS(=O)(=O)C1(c2ccn(C(=O)NC34CC(c5nc6cc(Br)ccc6s5)(C3)C4)n2)CC1 [Example 62] | 70 | 40 | 3.83
30 | CS(=O)(=O)C1(c2ccn(C(=O)NC34CC(c5nc6ccc(Cl)cc6s5)(C3)C4)n2)CC1 [Example 63] | 110 | 80 | 5.06
31 | CS(=O)(=O)C1(c2ncc(C(=O)NC34CC(c5nc6ccc(Cl)cc6s5)(C3)C4)o2)CC1 [Example 67, N-[3-(6-chloro-1,3-benzothiazol-2-yl)-1-bicyclo[1.1.1]pentanyl]-2-(1-methylsulfonylcyclopropyl)oxazole-5-carboxamide] | 400 | 320 | 7.25
32 | CS(=O)(=O)C(Cl)c1ccc(C(=O)NC23CC(c4nc5cc(Cl)ccc5s4)(C2)C3)o1 (stereo not drawn) [Example 75, 5-(chloro(methylsulfonyl)methyl)-N-(3-(5-chlorobenzo[d]thiazol-2-yl)bicyclo[1.1.1]pentan-1-yl)furan-2-carboxamide] | 550 | 430 | 16.8
